What was measured:
MEK1 = assay: Aβ25-35-induced MEK1 phosphorylation in N2a cells (ELISA); type: cell-based; conditions: concomitant treatment 30-40 min
Procedure: 7. Measure the amount of total and phosphorylated MEK1 in cell lysates of N2a cells, by ELISA using the PathScan total MEK1 sandwich ELISA kit (Cell Signaling TECHNOLOGY) or the PathScan phosoho-MEK1 (Ser217/221) sandwich ELISA kit (Cell Signaling TECHNOLOGY), respectively. 8. Determine the optical density at 450 nm using a microplate reader.
N2a cells were treated concomitantly with Aβ25-35 and TTF for 30 min. Cells were extracted and the levels of phosphorylated or total MEK1 were determined by specific ELISA kits. The results are the mean±SEM of two different experiments for phosphoMEK1 (n=4) (see FIG. 12A) and of one experiment for total MEK1 (n=2) (see FIG. 12B).
N2a cells were treated concomitantly with Aβ25-35 and AcA for 40 min. Cells were extracted and the levels of phosphorylated or total MEK1 were determined by specific ELISA kits. The results are the mean±SEM of one experiment (n=2).
N2a cells were treated concomitantly with A25-35 and memantine for 30 min. Cells were extracted and the levels of phosphorylated or total MEK1 were determined by specific ELISA kits. The results are the mean±SEM of one experiment (n=2).

SAPK/JNK = assay: Aβ25-35-induced SAPK/JNK phosphorylation in N2a cells (ELISA); type: cell-based; conditions: concomitant treatment 30-40 min
Procedure: 7. Measure the amount of total and phosphorylated SAPK/JNK in cell lysates) of N2a cells, by ELISA using the PathScan total SAPK/JNK sandwich ELISA kit (Cell Signaling TECHNOLOGY) and the PathScan phosoho-SAPK/JNK (Thr183/Tyr185) sandwich ELISA kit (Cell Signaling TECHNOLOGY), respectively, according to the manufacturer's instructions. 8. Determine the optical density at 450 nm using a microplate reader.
N2a cells were treated concomitantly with Aβ25-35 and TIF for 40 min. Cells were extracted and the levels of phosphorylated or total SAPK/JNK were determined by specific ELISA kits. The results are the mean±SEM of two different experiments (n=4) for phosphorylated SAPK/JNK and three different experiments (n=6) for total SAPK/JNK.
N2a cells were treated concomitantly with Aβ25-35 and achillolide A for 40 min. Cells were extracted and the levels of phosphorylated or total SAPK/JNK were determined by specific ELISA kits. The results are the mean±SEM of two different experiments (n=4) for phosphorylated SAPK/JNK and three different experiments (n=6) for total SAPK/JNK.
N2a cells were treated concomitantly with Aβ25-35 and memantine for 30 min. Cells were extracted and the levels of phosphorylated SAPK/JNK were determined by a specific ELISA kit. The results are the mean±SEM of one experiment (n=2).

primary astrocytes = assay: Protection of astrocytes from H2O2-induced cell death (LDH); type: cell-based, rat; conditions: LDH 20 h later
Procedure: Primary cultures of astrocytes were prepared from cerebral cortices of 1-2 day-old neonatal Wistar rats as described (Elmann et al., 2011b). Fourteen days old astrocytes were used in the experiments. The research was conducted in accordance with the NIH guide for the care and use of laboratory animals, and was approved by the Institutional Animal Care and Use Committee of The Volcani Center, Agricultural Research Organization (IL-135/07, approval date Apr. 11, 2007). All efforts were made to minimize animal suffering and to reduce the number of animals used.
Astrocytes were re-plated at 24-well poly-D-lysine-coated plastic plates at a density of 1×10^5/well, in DMEM w/o Phenol Red containing 2% FBS, 2 mM glutamine, 100 U/mL penicillin, and 100 μg/mL streptomycin. H2O2 in the presence or absence of TTF were added, and cell viability was determined using a commercial colorimetric assay (Roche Applied Science, Germany) according to the manufacturer's instructions. This assay is based on the measurement of lactate dehydrogenase (LDH) activity released from the cytosol of damaged cells into the incubation medium. The absorbance was measured at 492 nm in a plate reader. The percentage of cytotoxicity was calculated according to the following equation, where the “ATriton-x treated cells” is the maximum releasable LDH in the cells:
In order to characterize the ability of TTF to protect against H2O2-induced astrocytic cell death, inventors assessed changes in cell viability using a model in which oxidative stress was induced by the addition of H2O2 to cultures of primary astrocytes. The concentration of H2O2 used in experiments (175-200 μM) resembles the concentration reported in rat striatum under ischemic conditions (Hyslop et al., 1995). […] Following preincubation, H2O2 was added, and cytotoxicity was determined 20 h later using the LDH assay. […] It should be noted that at all concentrations tested, the cytotoxicity of this flavonoid by itself to astrocytes was very low (<11%) as was determined by the LDH method (FIG. 2C). […] The protective activity of TTF was also compared to that of memantine, which is used as a drug for the treatment of Alzheimer's disease.
1. Produce a primary culture of rat brain glial cells according to the method described in “Protective effects of the essential oil of salvia fruticosa and its constituents on astrocytic susceptibility to hydrogen peroxide-induced cell death”. 2009. A. Elmann, S. Mordechay, M. Rindner, O. Larkov, M. Elkabetz, U. Ravid. Journal of agricultural and food chemistry. 57(15):6636-41; 2. Separate astrocytes from other cell types in the culture according to the method described in “Protective effects of the essential oil of salvia fruticosa and its constituents on astrocytic susceptibility to hydrogen peroxide-induced cell death”. 2009. A. Elmann, S. Mordechay, M. Rindner, O. Larkov, M. Elkabetz, U. Ravid. Journal of agricultural and food chemistry. 57(15):6636-41; 3. Incubate the cultured astrocytes (37° C., 5% CO2) for 2 hours with freshly diluted TTF or AcA of the invention; 4. Add 175-200 micromolars of freshly diluted H2O2; 5. Incubate the culture for 20-24 hr (37° C., 5% CO2); 6. Measure cell cytotoxicity and viability by the colorimetric lactate dehydrogenase (LDH) assay (Roche Applied science) according to the manufacturer's instructions, and the crystal violet cell staining as follows: 7. Gently draw out medium from plate; 8. Transfer plate to a chemical hood; 9. Dispense 150 μl 5% formaldehyde (in PBS) to each well and incubate 15 min at RT; 10. Pour out formaldehyde to chemical waste and gently rinse under running tap water; 11. Remove excess water by tapping plate on a tissue paper; 12. Dispense 150 μl crystal violet solution (10 gr/liter, in water) to each well; 13. Incubate 15 min at RT (in the chemical hood); 14. Pour out crystal violet to chemical waste and gently rinse under running tap water until all residual dye is removed; 15. Tap plate on a tissue paper to remove remaining water; 16. […]

[1] = 1 μM (lowest concentration tested), compound added 2 h before H2O2
[2] = 8 μM compound added 2 h before H2O2

Compound | effect on Aβ25-35-induced phosphorylation of MEK1 (MEK1) | effect on Aβ25-35-induced phosphorylation of SAPK/JNK (SAPK/JNK) | protection against H2O2-induced cell death (primary astrocytes; [1]) | protection against H2O2-induced cell death (primary astrocytes; [2]) | protection against H2O2-induced cell death (primary astrocytes; 10 μM compound added 2 h before H2O2) | protection of astrocytes from H2O2-induced cell death (primary astrocytes; H2O2 200 μM added 2 h after compound)
COc1cc(-c2oc3cc(OC)c(OC)c(O)c3c(=O)c2O)ccc1O [TTF, 3,5,4′-trihydroxy-6,7,3′-trimethoxyflavone] | significantly inhibited | significantly inhibited | 24% | 92% |  | 
O=c1c(O)c(-c2ccc(O)c(O)c2)oc2cc(O)cc(O)c12 [quercetin, 3,3′,4′,5,7-Pentahydroxyflavone, reference compound] |  |  |  |  | 36% | 
CC12CC3CC(C)(C1)CC(N)(C3)C2 [memantine, reference compound] | down-regulates | down-regulates | 48% | 58% |  | 
C=C1CCC2=C(CO)C(=O)O[C@H]2/C=C(\C)[C@H](OC(C)=O)CC1=O [achillolide A] | does not affect | significantly decreased |  |  |  | protects
